We go through two compounds from patent publication US11440903B2, “Salt form and crystal form of compound as FGFR4 inhibitor and preparation method thereof” (GUANGDONG ZHONGSHENG PHARMACEUTICAL CO., LTD, priority 2017, dated 2022).

Where two headings read alike, the source gives them in different places.

One series addresses T1, FGFR4 kinase (Homo sapiens, UniProt P22455).
T1 construct: purchased Life technology
The series is described as follows: In vitro enzyme activity test, Z'-LYTE Assay, FGFR4 enzymatic reaction. Type of series: biochemical. Conditions: 150 μM ATP, room temperature 60 min. As to the method:
(§1) The enzyme activity was detected by Z′-LYTE® Assay with IC50 value of the compound used as an index for evaluating the inhibitory effect of the compound on FGFR4 kinases. The activity test was completed in Life technology.
(§2) The test compound was subjected to 3× gradient dilution, and the final concentrations included 10 concentrations from 10 μM to 0.5 nM, with two duplicates per concentration; the content of DMSO used in the detection reaction was 1%.
[…] The detection plate was Bar-coded Corning, low volume NBS, black 384-well plate, the reaction was implemented at room temperature for 60 min, and the reaction system was 10 μL.
(§3) 5 μL Development reagent B (1:64) was added into the kinase reaction solution to stop the reaction, and the reaction solution was incubated at 23° C. for 60 min, the plate was read with Envision instrument.
(§4) The data were converted to the phosphorylation rate and the inhibitory rate, and was subjected to curve fitting with Model 205 in XLFIT (iDBS) to give the IC50 data of the compound. If the bottom of the curve was not in the range of −20% to 20%, it was set as 0%; and if the top of the curve was not in the range of 70% to 130%, it was set as 100%.

For a further series, the target named is T2, FGFR1 protein kinase (Homo sapiens, UniProt P11362).
T2 construct: purchased Life technology
Nature of the series: In vitro enzyme activity test, Z'-LYTE Assay, FGFR1 enzymatic reaction. Conditions: 25 uM ATP, room temperature 60 min. Type of series: biochemical. On the procedure: as §1, §2
1 nM FGFR1 protein kinase, 2 μM Tyr4 peptide, 25 uM ATP, 50 mM HEPES (pH 7.5), 10 mM MgCl2, 1 mM EGTA, 0.01% BRIJ-35, 2 mM MnCl2, and 1 mM DTT. The detection plate was Black Proxiplate 384-Plus plate (PerkinElmer), the reaction was implemented at room temperature for 60 min, and the reaction system was 10 μL.
as §3, §4

Series [1] in a line: Stability of the crystal form on stirring as suspension in solvent (40° C., 2 days). It counts as physicochemical. Conditions: stirring in acetone at 40° C. As to the method:
30 mg of the compound represented by formula (I) was weighed and added into a glass flask, 400 μL acetonitrile-water (1:1) was added to form a suspension. A sample of the suspension was placed on a magnetic stirrer (40° C.) for a dark stirring experiment. The sample of the suspension was centrifuged after stirring at 40° C. for 2 days, and then the residual sample was dried in a vacuum drying oven (30° C.) overnight to give a crystal form A of the compound represented by formula (I). The XRPD pattern of the crystal form A of the compound represented by formula (I) is shown in FIG. 1, the DSC pattern is shown in FIG. 2, and the TGA pattern is shown in FIG. 3.
30 mg of the compound represented by formula (I) was weighed and added into a glass flask, and 400 μL ethyl acetate was added to form a suspension. A sample of the suspension was placed on a magnetic stirrer (40° C.) for dark stirring experiment. The sample of the suspension was centrifuged after stirring at 40° C. for 2 days, and then the residual sample was dried in a vacuum drying oven (30° C.) overnight. The crystal form was detected by XRPD to give a crystal form A of the compound represented by formula (I).
30 mg of the compound represented by formula (I) was weighed and added into a glass flask, and 400 μL methanol was added to form a suspension. A sample of the suspension was placed on a magnetic stirrer (40° C.) for dark stirring experiment. The sample of the suspension was centrifuged after stirring at 40° C. for 2 days, and then the residual sample was dried in a vacuum drying oven (30° C.) overnight to give a crystal form B of the compound represented by formula (I). The XRPD pattern of the crystal form B of the compound represented by formula (I) is shown in FIG. 4, the DSC pattern is shown in FIG. 5, and the TGA pattern is shown in FIG. 6.
50 mg of the compound represented by formula (I) was weighed and added into a 1.5 mL liquid vial, and 200 μL methanol was added thereto, the obtained mixture was homogeneously mixed under ultrasound. The dissolved sample was quickly centrifuged, and the supernatant was placed in a centrifuge tube, the mouth of the tube was packed with a pierced aluminum foil, and then the tube was placed in a fume cupboard for volatilization; the sample of the suspension was placed on a magnetic stirring heater (40° C.) for stirring (in dark), and quickly centrifuged after 2 days. The resultant solid was collected and dried at 30° C. in a vacuum drying oven overnight to give the crystal form C of the compound represented by formula (I). The XRPD pattern of the crystal form C of the compound represented by formula (I) is shown in FIG. 7, the DSC pattern is shown in FIG. 8, and the TGA pattern is shown in FIG. 9.
50 mg of the compound represented by formula (I) was weighed and added into a 1.5 mL liquid vial, and 200 μL ethanol was added thereto, and the obtained mixture was homogeneously mixed under ultrasound. The dissolved sample was quickly centrifuged, the supernatant was placed into a centrifuge tube, and the mouth of the tube was packed with a pierced aluminum foil, and placed in a fume cupboard for volatilization; the sample of the suspension was placed on a magnetic stirring heater (40° C.) for stirring (in dark), and quickly centrifuged after 2 days. The solid obtained as above was collected and dried at 30° C. in a vacuum drying oven overnight to give a crystal form D of the compound represented by formula (I). The XRPD pattern of the crystal form D of the compound represented by formula (I) is shown in FIG. 10, the DSC pattern is shown in FIG. 11, and the TGA pattern is shown in FIG. 12.
35 mg of the compound represented by formula (II) was weighed and added into a 1.5 mL liquid vial, and 400 μL methanol was added thereto, and the obtained mixture was homogeneously mixed under ultrasound. […]

The nature of series [2]: Solubility test in biological media (FaSSIF, FeSSIF, SGF) and water, 37° C. Type of series: physicochemical. Conditions: for Status (24 h) / solubility at 24 h / pH 24 hours: 37° C.; for Status (24 h): about 4 mg in 2 mL; for solubility at 24 h: salt forms converted to salt concentrations, read-out: Solubility (mg/mL) 24 hours; for pH 24 hours: supernatant; for pH 0 hour: initial. As to the method:
Step 1: Preparation of Control Solutions (0.2 mg/mL, calculated by free base)
2 mg the crystal form B of the compound represented by formula (I) (or 2.4 mg the crystal form E of the compound represented by formula (II)) as a control was precisely weighed and placed into a 40 mL glass vial, and a diluent (10 mL) was precisely added. The reaction solution was subjected to ultrasonic treatment for 20 min to sufficiently dissolve, then cooled to room temperature and shaked well. Two control solutions (STD #1, STD #2) were formulated in accordance with this method.
Step 2: Preparation of Linear Solutions
The control solution STD #1 of the crystal form B of the compound represented by formula (I) was 1×, 10×, 100×, 1000× and 2000× (free base LOQ) diluted, and designated as the linear solutions L1, L2, L3, L4 and L5; the control solution STD #1 of the crystal form E of the compound represented by formula (II) was 1×, 10×, 100× and 1000× (methanesulfonate LOQ) diluted, and designated as the linear solutions L1, L2, L3, L4.
Step 3: Solubility Test of the crystal form B of the compound represented by formula (I), the crystal form G of the compound represented by formula (III) and the crystal form E of the compound represented by formula (II) in biological media and water
4 samples (about 4 mg) of each of the crystal form B of the compound represented by formula (I), the crystal form E of the compound represented by formula (II), and the crystal form G of the compound represented by formula (III) were added into 12 glass vials (4 mL), respectively, and then 2 mL different biological media (FaSSIF, FeSSIF, SGF) and water were added into each compound respectively, then mixed homogeneously to form a suspension. The suspension was detected for its initial pH value. A magnet was added into the suspension, and placed on a magnetic stirring heater for stirring (at a temperature of 37° C., in dark). After stirring for 24 h, a sample was taken. The taken sample was quickly centrifuged, and the residual solid was detected by XRPD. The supernatant was detected for its pH value and diluted with a diluent into appropriate multiple, then measured with HPLC for its concentration.
FaSSIF: 1. 0.042 g sodium hydroxide, 0.3438 g sodium dihydrogen phosphate and 0.6186 g sodium chloride were weighed, added into 90 mL purified water, and homogeneously mixed, then, the mixture was adjusted with 1 N hydrochloric acid or 1 N sodium hydroxide to pH=6.5, and diluted into a constant volume of 100 mL with purified water; 2. 50 mL of the buffer described above was taken, and 0.224 g commercially available powder (Biorelevant.com) of FaSSIF/FeSSIF/FaSSGF was added thereto, the mixture was stirred to dissolve, and diluted with purified water to a constant volume of 100 mL.
FeSSIF: 1. 0.404 g sodium hydroxide, 0.865 g glacial acetic acid, and 1.1874 g sodium chloride were weighed, added into 90 mL purified water, and homogeneously mixed, then, the mixture was adjusted with 1 N hydrochloric acid or 1 N sodium hydroxide to pH=5.0, and diluted with purified water to a constant volume of 100 mL, 2. 50 mL of the buffer described above was taken, and 1.12 g commercially available powder (Biorelevant.com) of FaSSIF/FeSSIF/FaSSGF was added thereto, the mixture was stirred to dissolve, and diluted with purified water to a constant volume of 100 mL.
FaSSGF (SGF): 1. 0.2 g sodium chloride was weighed, added into 90 mL purified water, and mixed homogeneously, the mixture was adjusted with 1 N hydrochloric acid to pH=1.8, and diluted with purified water to a constant volume of 100 mL, and stood at room temperature.

T2 sequence (P11362 22-822): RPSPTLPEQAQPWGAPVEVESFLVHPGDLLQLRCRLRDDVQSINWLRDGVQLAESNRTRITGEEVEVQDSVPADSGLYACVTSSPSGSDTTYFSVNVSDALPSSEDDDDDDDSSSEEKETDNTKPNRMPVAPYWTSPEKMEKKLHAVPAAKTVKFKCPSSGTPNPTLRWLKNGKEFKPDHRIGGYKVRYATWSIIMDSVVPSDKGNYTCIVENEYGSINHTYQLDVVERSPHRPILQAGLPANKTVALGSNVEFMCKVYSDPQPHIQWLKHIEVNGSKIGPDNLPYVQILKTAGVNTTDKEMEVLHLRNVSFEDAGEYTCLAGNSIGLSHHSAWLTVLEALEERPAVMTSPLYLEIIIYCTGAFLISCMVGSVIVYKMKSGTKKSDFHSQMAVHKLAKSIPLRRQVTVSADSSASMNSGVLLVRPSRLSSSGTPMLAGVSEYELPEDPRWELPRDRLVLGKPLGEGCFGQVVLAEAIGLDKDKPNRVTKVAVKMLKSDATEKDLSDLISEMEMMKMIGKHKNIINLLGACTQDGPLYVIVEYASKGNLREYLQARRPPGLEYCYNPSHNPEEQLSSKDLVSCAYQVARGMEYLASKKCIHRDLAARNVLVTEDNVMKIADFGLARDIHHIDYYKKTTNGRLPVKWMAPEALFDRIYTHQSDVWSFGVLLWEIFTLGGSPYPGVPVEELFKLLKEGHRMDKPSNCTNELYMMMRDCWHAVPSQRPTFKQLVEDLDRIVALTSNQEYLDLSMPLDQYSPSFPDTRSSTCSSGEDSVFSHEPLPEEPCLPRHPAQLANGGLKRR
T1 sequence (P22455 22-802): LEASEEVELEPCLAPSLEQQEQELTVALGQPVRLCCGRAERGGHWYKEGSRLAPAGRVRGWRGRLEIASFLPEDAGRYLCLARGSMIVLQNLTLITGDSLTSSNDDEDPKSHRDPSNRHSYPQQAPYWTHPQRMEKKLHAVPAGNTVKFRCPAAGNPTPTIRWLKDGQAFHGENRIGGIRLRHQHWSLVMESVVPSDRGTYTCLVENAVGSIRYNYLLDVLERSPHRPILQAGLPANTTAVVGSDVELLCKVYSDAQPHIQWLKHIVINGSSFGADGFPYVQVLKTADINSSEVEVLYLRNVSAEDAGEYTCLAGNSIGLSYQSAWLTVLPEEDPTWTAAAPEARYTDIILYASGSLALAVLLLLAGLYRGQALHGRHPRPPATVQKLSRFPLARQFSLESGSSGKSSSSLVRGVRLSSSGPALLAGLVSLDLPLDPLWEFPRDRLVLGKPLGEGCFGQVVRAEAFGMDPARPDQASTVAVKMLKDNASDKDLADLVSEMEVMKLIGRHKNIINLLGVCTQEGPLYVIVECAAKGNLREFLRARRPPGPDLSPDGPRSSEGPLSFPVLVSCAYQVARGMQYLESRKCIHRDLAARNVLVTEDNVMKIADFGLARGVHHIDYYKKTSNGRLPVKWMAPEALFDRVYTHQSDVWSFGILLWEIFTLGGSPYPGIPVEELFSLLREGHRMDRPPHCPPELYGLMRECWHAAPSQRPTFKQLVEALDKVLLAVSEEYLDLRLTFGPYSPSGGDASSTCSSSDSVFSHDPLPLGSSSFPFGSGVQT

As to `C=CC(=O)N[C@H]1COC[C@H]1Nc1ncc(/C=C(\F)c2c(Cl)c(OC)cc(OC)c2Cl)cn1` [Compound represented by formula (I)], the IC50 at FGFR4 kinase stood at 17 nM; against FGFR1 protein kinase, 1460 nM.
For `C=CC(=O)N[C@H]1COC[C@H]1Nc1ncc(/C=C(\F)c2c(Cl)c(OC)cc(OC)c2Cl)cn1.O=S(=O)(O)O`, in series [1], the “stability in the acetone solution” value is “substantially high stability”. In addition, the “Status (24 h)” value in series [2] (FaSSIF), in series [2] (FeSSIF), in series [2] (SGF) and in series [2] (Water) was “Suspension” throughout. The “solubility in three types of biological media, conclusion in words” value in series [2] (FaSSIF, FeSSIF, SGF) is listed as “good solubility”. Besides, the solubility at 24 h is 0.045 mg/mL in series [2] (SGF (FaSSGF), pH 1.8, simulated gastric fluid, thermodynamic from solid, SGF); 0.668 mg/mL in series [2] (pH 5, thermodynamic from solid, FeSSIF); 0.079 mg/mL in series [2] (pH 6.5, thermodynamic from solid, FaSSIF); 0.028 mg/mL in series [2] (thermodynamic from solid, Water). Moreover, the “pH 24 hours” value in series [2] (FaSSIF) is recorded as 6.38; in series [2] (FeSSIF), 4.99; in series [2] (SGF), 2.14; in series [2] (Water), 2.47. Besides, the “pH 0 hour” value in series [2] (suspension in FaSSIF) is given as 6.54; in series [2] (suspension in FeSSIF) it was 4.87; in series [2] (suspension in SGF), 2.03; in series [2] (suspension in Water), 2.34.
